# pKi: −log10 of the molar value.
# Experiments:
# [1] = molecular target: Serine/threonine-protein kinase pim-2 (Homo sapiens, UniProt Q9P1W9)
# Description: Inhibition of Pim2 (unknown origin) using BAD peptide preincubated for 15 mins followed by ATP addition measured after 60 to 100 mins by Kinase-Glo reagent based luminescence assay
# [2] = molecular target: Serine/threonine-protein kinase pim-3 (Homo sapiens, UniProt Q86V86); experiment: Inhibition of Pim3 (unknown origin) using BAD peptide preincubated for 15 mins followed by ATP addition measured after 60 to 100 mins by Kinase-Glo reagent based luminescence assay
# [3] = molecular target: Serine/threonine-protein kinase pim-1 (Homo sapiens, UniProt P11309); experiment: Inhibition of Pim1 (unknown origin) using BAD peptide preincubated for 15 mins followed by ATP addition measured after 60 to 100 mins by Kinase-Glo reagent based luminescence assay
# Serine/threonine-protein kinase pim-1, sequence (P11309 whole entry): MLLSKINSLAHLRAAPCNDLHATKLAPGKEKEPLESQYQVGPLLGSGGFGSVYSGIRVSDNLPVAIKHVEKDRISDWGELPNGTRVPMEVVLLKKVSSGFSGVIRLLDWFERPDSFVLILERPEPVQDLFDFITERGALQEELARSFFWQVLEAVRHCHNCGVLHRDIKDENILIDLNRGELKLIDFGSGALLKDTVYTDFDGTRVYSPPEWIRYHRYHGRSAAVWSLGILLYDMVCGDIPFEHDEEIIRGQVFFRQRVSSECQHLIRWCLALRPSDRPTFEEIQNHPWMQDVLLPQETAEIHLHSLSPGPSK
# [4] = Hepatic extraction ratio in rat liver microsomes at 1 uM incubated for 30 mins by semi-quantitative LC-MS/MS analysis; type: ADME; conditions: read-out: ERH
# [5] = Hepatic extraction ratio in human liver microsomes at 1 uM incubated for 30 mins by semi-quantitative LC-MS/MS analysis; type: ADME; conditions: read-out: ERH
# [6] = Lipophilicity, logD of the compound; type: physicochemical; conditions: octanol/water
# Serine/threonine-protein kinase pim-2, sequence (Q9P1W9 whole entry): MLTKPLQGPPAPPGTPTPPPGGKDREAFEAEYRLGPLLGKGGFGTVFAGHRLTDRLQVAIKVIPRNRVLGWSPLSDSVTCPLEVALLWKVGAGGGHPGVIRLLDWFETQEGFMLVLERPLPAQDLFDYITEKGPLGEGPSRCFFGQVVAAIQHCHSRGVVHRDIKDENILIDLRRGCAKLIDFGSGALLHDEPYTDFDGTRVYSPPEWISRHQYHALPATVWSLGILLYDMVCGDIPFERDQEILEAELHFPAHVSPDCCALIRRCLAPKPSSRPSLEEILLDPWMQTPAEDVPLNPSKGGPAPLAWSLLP
Compound,pKi [1],pKi [2],pKi [3],"hepatic extraction ratio at 0.5 h, 1 µM [4]","hepatic extraction ratio at 0.5 h, 1 µM [5]",logD [6]
COc1cc(-c2ccncc2NC(=O)c2nc(-c3c(F)cccc3F)ccc2N)cc(N)n1,8.40,> 8.52,> 9.00,–,–,–
CC(=O)Nc1nc(C(=O)Nc2ccccc2N2CCCCC2)cs1,< 4.90,–,7.05,–,–,–
Nc1ccc(-c2ccncc2NC(=O)c2nc(-c3ccccc3F)ccc2N)cn1,6.80,7.92,8.40,–,–,–
Cc1cc(-c2ccncc2NC(=O)c2nc(-c3nccs3)ccc2N)nc(N)n1,8.05,> 8.52,> 9.00,0.81,0.64,–
Nc1nccc(-c2ccncc2NC(=O)c2nc(-c3c(F)cccc3F)ccc2N)n1,7.30,8.30,8.22,–,–,–
Nc1ccc(-c2c(F)cccc2F)nc1C(=O)Nc1cnccc1-c1cccnc1N,6.73,7.44,7.55,–,–,–
Nc1cc(-c2ccncc2NC(=O)c2nc(-c3c(F)cccc3F)ccc2N)ncn1,7.57,8.30,8.40,–,–,–
Nc1cc(-c2ccncc2NC(=O)c2nc(-c3c(F)cccc3F)ccc2N)ccn1,8.10,> 8.52,8.70,–,–,–
Cc1cc(-c2ccncc2NC(=O)c2nc(-c3c(F)cccc3F)ccc2N)cc(N)n1,> 8.52,> 8.52,> 9.00,0.94,0.96,–
Nc1cc(-c2ccncc2NC(=O)c2nc(-c3c(F)cccc3F)ccc2N)nc(C(F)(F)F)n1,> 8.52,> 8.52,> 9.00,0.91,0.77,4.3
Nc1cc(-c2ccncc2NC(=O)c2nc(-c3nccs3)ccc2N)nc(C(F)(F)F)n1,> 8.52,> 8.52,> 9.00,0.89,0.87,–
Nc1ccc(-c2ccccc2F)nc1C(=O)Nc1cnccc1-c1ccncc1,6.50,7.68,8.10,–,–,–
Cc1nc(N)cc(-c2ccncc2NC(=O)c2nc(-c3c(F)cccc3F)ccc2N)n1,> 8.52,> 8.52,> 9.00,0.82,0.82,–
Nc1cc(-c2ccncc2NC(=O)c2nc(-c3ccccc3F)ccc2N)ccn1,7.46,8.52,> 9.00,–,–,–
Cc1cc(-c2ccncc2NC(=O)c2nc(-c3ccccc3F)ccc2N)cc(N)n1,8.40,> 8.52,> 9.00,0.95,0.95,–
Cc1cc(-c2ccncc2NC(=O)c2nc(-c3ccccc3F)ccc2N)nc(N)n1,> 8.52,> 8.52,> 9.00,0.8,0.58,–
Nc1cncc(-c2ccncc2NC(=O)c2nc(-c3ccccc3F)ccc2N)n1,7.03,8.22,8.52,–,–,–
Nc1cc(-c2ccncc2NC(=O)c2nc(-c3ccccc3F)ccc2N)nc(N)n1,6.92,7.82,7.77,–,–,–
